In ChEMBL document CHEMBL4033634, “Synthesis and biological evaluation of novel aromatic and heterocyclic bis-sulfonamide Schiff bases as carbonic anhydrase I, II, VII and IX inhibitors” (Bioorg Med Chem, 2017) one finds Ki data, which are given here for 16 molecules.

Broadly, the Ki is the equilibrium dissociation constant of an inhibitor or competing ligand from its target. The low end stands for higher affinity, the high end for lower affinity.

SMILES strings stand for the structures.

The target in one assay is Carbonic anhydrase 9 (Homo sapiens, UniProt Q16790). The assay can be described thus: Inhibition of human carbonic anhydrase 9 incubated for 10 mins by stopped flow CO2 hydrase assay.
The next assay has as its target Carbonic anhydrase 1 (Homo sapiens, UniProt P00915). The assay can be described thus: Inhibition of human carbonic anhydrase 1 incubated for 10 mins by stopped flow CO2 hydrase assay.

Carbonic anhydrase 1, sequence (P00915 whole entry): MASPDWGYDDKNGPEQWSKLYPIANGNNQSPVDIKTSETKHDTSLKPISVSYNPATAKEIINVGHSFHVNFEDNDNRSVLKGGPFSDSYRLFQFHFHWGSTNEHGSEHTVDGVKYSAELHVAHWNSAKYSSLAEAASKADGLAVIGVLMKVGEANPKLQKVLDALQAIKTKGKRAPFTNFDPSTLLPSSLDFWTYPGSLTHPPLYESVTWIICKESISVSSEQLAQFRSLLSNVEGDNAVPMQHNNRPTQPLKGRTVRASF

Take `NS(=O)(=O)c1cccc(/N=C/c2ccc(/C=N/c3cccc(S(N)(=O)=O)c3)o2)c1`: the Ki on Carbonic anhydrase 9 is 516 nM; at Carbonic anhydrase 1, > 10000 nM.
The molecule `NS(=O)(=O)c1nnc(/N=C/c2ccc(/C=N/c3nnc(S(N)(=O)=O)s3)cc2)s1` gave a Ki at Carbonic anhydrase 9 of 25.2 nM.
With `NS(=O)(=O)c1ccc(/N=C/c2ccc(/C=N/c3ccc(S(N)(=O)=O)cc3)o2)cc1`, on Carbonic anhydrase 9, the Ki came to 76.2 nM.
On Carbonic anhydrase 9, `NS(=O)(=O)c1ccc(CC/N=C/c2ccc(/C=N/CCc3ccc(S(N)(=O)=O)cc3)cc2)cc1` registered a Ki of 261 nM.
Still for that read-out and setting: the value for `NS(=O)(=O)c1cccc(/N=C/c2cccc(/C=N/c3cccc(S(N)(=O)=O)c3)c2)c1` was 678 nM; that for `NS(=O)(=O)c1nnc(/N=C/c2ccc(/C=N/c3nnc(S(N)(=O)=O)s3)o2)s1` was 5.9 nM; that for `NS(=O)(=O)c1ccc(/N=C/c2cccc(/C=N/c3ccc(S(N)(=O)=O)cc3)c2)cc1` was 93.1 nM.
At Carbonic anhydrase 9, `NS(=O)(=O)c1ccc(CC/N=C/c2ccc(/C=N/CCc3ccc(S(N)(=O)=O)cc3)o2)cc1` came in with a Ki of 153 nM.
Same read-out and setting: the result for `NS(=O)(=O)c1nnc(/N=C/c2cccc(/C=N/c3nnc(S(N)(=O)=O)s3)c2)s1` reads 0.5 nM.
Same read-out and setting: the result for `NS(=O)(=O)c1ccc(/N=C/c2ccccc2/C=N/c2ccc(S(N)(=O)=O)cc2)cc1` reads 21.8 nM.
With `NS(=O)(=O)c1ccc(CC/N=C/c2cccc(/C=N/CCc3ccc(S(N)(=O)=O)cc3)c2)cc1`, the Ki on Carbonic anhydrase 9 was 319 nM.
The same measure, in the same setting: the value for `NS(=O)(=O)c1cccc(/N=C/c2ccccc2/C=N/c2cccc(S(N)(=O)=O)c2)c1` was 89.6 nM.
At Carbonic anhydrase 9, `NS(=O)(=O)c1nnc(/N=C/c2ccccc2/C=N/c2nnc(S(N)(=O)=O)s2)s1` came in with a Ki of 5.8 nM.
The same measure, in the same setting: the value for `NS(=O)(=O)c1ccc(/N=C/c2ccc(/C=N/c3ccc(S(N)(=O)=O)cc3)cc2)cc1` was 934 nM; that for `NS(=O)(=O)c1cccc(/N=C/c2ccc(/C=N/c3cccc(S(N)(=O)=O)c3)cc2)c1` was 1470 nM.
As to `NS(=O)(=O)c1ccc(CC/N=C/c2ccccc2/C=N/CCc2ccc(S(N)(=O)=O)cc2)cc1`, the Ki on Carbonic anhydrase 9 stood at 17.9 nM.
